# Reference: patent publication US20110306579A1, “METHODS OF NEUROPROTECTION USING NEUROPROTECTIVE STEROIDS AND A VITAMIN D” (EMORY UNIVERSITY, priority 2009, published 2011)
# Where a name gives a salt, the structure may show the parent alone.
# Assays:
# [1] = biological target: T1, vitamin D binding protein (DBP) (Homo sapiens, UniProt P02774); details: cited from earlier work
# T1 construct: host or cells: serum
# T1 sequence (P02774 17-474): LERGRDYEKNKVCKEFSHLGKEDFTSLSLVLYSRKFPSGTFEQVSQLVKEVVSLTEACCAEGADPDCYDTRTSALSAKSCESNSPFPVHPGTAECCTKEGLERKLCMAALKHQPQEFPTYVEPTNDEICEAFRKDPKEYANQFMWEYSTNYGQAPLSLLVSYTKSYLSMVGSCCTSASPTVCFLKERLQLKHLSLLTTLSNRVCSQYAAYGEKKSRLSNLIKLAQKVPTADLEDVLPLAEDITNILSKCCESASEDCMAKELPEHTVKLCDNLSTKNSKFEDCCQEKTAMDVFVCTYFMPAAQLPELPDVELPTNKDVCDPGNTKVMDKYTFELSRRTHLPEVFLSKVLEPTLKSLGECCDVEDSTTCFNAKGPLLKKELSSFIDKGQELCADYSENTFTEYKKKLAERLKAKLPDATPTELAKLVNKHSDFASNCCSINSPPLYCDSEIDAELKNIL
# [2] = tested on: 20-month old Fischer 344 rats; assay: Cerebral edema analysis after cortical contusion brain injury; assay type: in vivo, rat; details: 4 mg/kg; for edema compared to subjects treated with vehicle: 24 hours post brain injury; for mean % difference edema: brain tissue 24 hours post brain injury, i.p. at 1 h, s.c. at 6 and 24 h
# Description: The methodology used is described in VanLandingham et al., Neuropharmacology, 2006, 51, 1078-1085.
# Sterile surgical procedures were used to prevent animal infection. Rats (20-month old Fischer 344 rats, which are the “human” equivalent of about 60 years old) were anesthetized and maintained on isoflurane and an equivalent amount of […] and O2 for 3 min prior to surgery. After brain contusion, O2 levels were doubled compared to […] and maintained through the reainder of the surgery procedure. A stereotaxic apparatus was used to stabilize the head in a horizontal position. Core body temperature was monitored and maintained at 37° C. using a Harvard homeothermic blanket (Harvard Apparatus, Holliston, Mass.). There was no direct measure used to deterct brain temperature. Blood oxygen and heart rate were maintained using a SurgiVet monitor (SurgiVet, Waukesha, Wis.) and maintained above 90% and 340 bpm respectively. A midline incision was made and the scalp retracted. A bilateral 6-mm craniotomy was performed with surgical drill centered at 3 mm rostral to bregma. The stainless steel impactor was positioned over the MFC at 3.0 mm A/P and 0.0 M/L. These coordinates represent the MFC as described by Paxinos and Watson (The Rat Brain in Stereotaxic Coordinates, Academic Press, San Diego, 1986). The cortical injury was induced using a pneumatically controlled device (Hoffman et al., J. Neurotrauma, 1994, 11, 417-431). Brain impact duration was 0.5 s. using a 5-mm impactor tip with a velocity set at 2.125 m/s and a cortical depth of 2 mm. Following the contusion, bleeding was halded and fascia and scalp were sutured shut. After surgery, animals were allowed to recover from anesthesia on a homeothermic heating blanket in a holding cage until awake. sham surgeries controlled for anesthesia and stress. All surgical procedures were the same, except that sham rates were not given a craniotomy or cortical injury. Previous studies using craniotomy as a control found no differences between shams with or without this procedure. (Goss et al., Pharmacol. Biochem. Behay. 2003, 76(2), 231-242).
# These experimental solutions were then diluted 1:1 with sterile water for a final concentration of HBC of 22.5%.
# All injections were done at the same time with brain harvesting at 24 h post-injury. Rats in each group were weightd prior to treatment to ensure proper dosage. The first injection at 1 h after surgery was given intraperitoneally to ensure rapid adsorption. All subsequent injections were made subcutaneously for gradual adsorption at 6 and 24 h. Injection times and neurosteroid doses were based on previous results of neurosteroid treatment (Roof et al., Twenty First Annual Meeting of the Society for Neuroscience, Miami Beach Fla., p. 191 and He et al., Exp. Neurol. 2004, 189, 404-412). The sterioids were dissolved in vehicle (22.5% 2-hydroxypropyl-b-cyclodextrin solution) at 4 mg/kg. The sham group received no treatment and injury control group received vehicle only.
# At 24 h after traumatic brain injury flresh brains were extracted from the skull and the dorsal cerebrum was separated along the line of the lateral fissure. Four 3-mm coronal sections were cut rostral to caudal, placed in pre-weighed 1.5 mL tubes and re-weighed (wet weight). Tubes were then left uncapped and placed in a vacuum oven set at 60° C. with an atmospheric pressure of 0.3 for 48 h. Following tube recapping, the tissue samples were again weighed (dry weight). Cerebral edema (% water content) was determined as the difference in wet and dry weights divided by wet weight (Roof and Stein Restor. Neurol. Ncurosci., 1992, 4, 425-427). Edema measures are reflective of the difference inwater content between at the average of the two most rostral (injury region) segments and most caudal (occipital cortex) segments of the dorsal sections of the brain.
# [3] = tested on: 20-month-old male Fischer 344 rats; assay: Spontaneous locomotor activity (open field) after TBI; assay type: in vivo, rat; details: 72 hours after injury; normalized to sham
# From the text: The animals in this study were separated into two groups, vitamin D normal (D-normal) and vitamin D deficient (D-deficient). […] Animals in the D-deficient group were maintained on the diet for at least 21 days prior to surgery. […] For this same reason the null diet was not altered in any other way, and the rats assigned to the D-deficient group were maintained on it until they were killed for harvesting of brain tissue. Since vitamin D is activated by UVB light (280-315 nm wavelength), the overhead lights were modified to not produce radiation in this range.
# Animals dehydrated due to blood loss were given 3 mL of lactated Ringer's solution subcutaneously within 6 hours of injury.
# Animals were assigned to D-normal or D-deficicnt groups. […] The same assignment was followed for both 24-hour and 72-hour survival groups. […] All drug treatments were dissolved in vehicle, and injection volume was equally proportional to each animal's weight across all groups. The intact sham (SHAM) groups served to provide baseline data and therefore received no injury or injections.
# In addition to molecular measures of inflammatory cytokines, the behavioral effects of the various treatments were examined. Since this study was limited to the short term effects on inflammation, only short-term Spontaneous Locomotor Activity was used.
# [4] = tested on: E18 rat primary cortical neurons; assay: Glutamate-induced excitotoxic cell death (LDH release and MTT reduction assays); assay type: cell-based
# From the text: Lactate dehydrogenase (LDH) release and 3-(4,5-dimethylthiazol-2-yl)-2,5-diphenyltetrazolium bromide (MTT) reduction assays were used to measure cell death. NeuroPureTM E18 primary rat cortical cells were commercially procured (Catalogue # N200200, Genlantis, San Diego, Calif., USA) as micro-surgically dissected regions from day 18 embryonic Sprague-Dawley rat brain. The tissues were processed for culturing according to manufacturer specifications. Briefly, enzymatic pre-treatment of the tissue was done prior to mechanical dissociation by incubating the tissues in sterile NeuroPapain enzyme solution at 30° C. for 30 minutes. Following incubation, the cells were centrifuged and transferred to fresh plating medium, where they were then dissociated into isolated neurons using a P-1000 pipettor with a sterile 1 ml plastic tip (0.8-1.0 mm diameter opening). The cells were again centrifuged and seeded in multi-well plates pre-coated with poly-D-lysine (0.15 ml/cm^2, 50 μg/ml) and maintained at 37° C. in a humidified 5% CO2 atmosphere. All experiments were performed after 9-10 days in culture. Twenty-four hours before glutamate exposure, cultures were pre-treated with both PROG (Cat. #P3972; Sigma Aldrich, St. Louis, Mo., USA) and VDH(Cat. #D1530; Sigma) separately or in combination with VDH at various concentrations. Stock solutions of PROG and VDH were prepared in dimethylsulfoxide (DMSO; Cat. #D2650; […] Glutamate was diluted in phosphate-buffered saline (PBS, pH 7.4). All reagents were filter sterilized before being added to cultures. At Day 11, cortical neurons in fresh media were separated into five treatment groups: (i) control; (ii) 24 hour treatment with 0.5 μM glutamate (Sribnick E A, et al., (2004) J Neurosci Res 76: 688-696); ([…]) with subsequent exposure to glutamate for 24 hours; (iv) 24 hour pre-treatment with VDH (1, 5, 10, 20, 40, 80, 100 nM) with subsequent exposure to glutamate for 24 hours; (v) 24 hour pre-treatment with different combinations of PROG and […]: 20 μM+VDH: 1, 5, 10, 20, 40, 80, 100 nM) with subsequent exposure to glutamate for 24 hours. Two widely accepted assays (LDH release and MTT reduction assay) for the measurement of cell viability were used. These assays are considered very reliable and reproducible with high predictive validity and are widely used in various pharmacological studies ([…], et al., (2002) Endocrinology 143: 205-212.). The LDH assay was performed as follows. […] LDH activity was measured using a Cytotoxicity Detection Kit (Roche Molecular Biochemicals, Indianapolis, Ind., USA) and quantitated by measuring absorbance at 490 nm. Data were normalized against the amount of LDH activity released from vehicle-treated control cultures receiving no glutamate. Neuronal death was also assessed by MTT [3-(4,5-dimethylthiazol-2-yl)-2,5-diphenyltetrazolium bromide] assay, which is based on the cleavage of the tetrazolium ring of the pale yellow MTT into dark blue formazan crystals by mitochondrial dehydrogenase enzyme in viable cells. These blue formazan crystals accumulate within the cells due to their impermeability to cell membrane, and are then solubilized by adding DMSO. The intensity of blue colored formazan solution is directly proportional to the number of surviving cells. Concentrations were determined by photometric analysis. Briefly, 10 μl of MTT were added per well and incubated at 37° C. for 4 hours until purple precipitate was visible. DMSO (50 μl) was added to solubilize the crystals and the absorbance was read at 570 nm.
# [5] = tested on: E18 rat primary cortical neurons; assay: Morphological analysis of cortical cultures (phase contrast); assay type: cell-based; details: glutamate 0.5 μM for 24 h; data not shown
# From the text: Changes in the morphology of neurons treated with different drugs in various groups were observed using a phase-contrast microscope (Nikon). Primary cultures were mainly observed for neurite outgrowth, a hallmark feature of healthy cells, and the density of healthy cells in different groups.
# [6] = tested on: MAPK (ERK1/2); assay: MAPK phosphorylation (p-ERK1/2 Western blot) in primary cortical neurons; assay type: cell-based, rat; details: VDH 100 nM, 30-minute treatment
# Description: PROG and VDH were added to the primary cultures, as described above, for 30 minutes ([…], et al., (2002) Endocrinology 143: 205-212) and the cells were lysed using RIPA lysis buffer kit (sc-24948, Santa Cruz, Calif., USA). Protein was determined in cell lysates by bicinchoninic acid (BCA) protein assay (Cat. # 23225, Pierce, Rockford, Ill., USA). Cell lysates (40 μg protein each sample) were separated under reducing and denaturing conditions by 12.5% acrylamide Criterion gel (BioRad, Hercules, Calif., USA) at 200V for 1 hour and transferred to a polyvinylidene difluoride (PVDF) membrane at 100V for 30 minutes. The non-specific binding sites of the membrane were blocked with 5% non-fat dry milk in PBS-T (phosphate buffered saline containing 0.05% Tween-20). […] Membranes were then incubated in horseradish peroxidase (HRP)-conjugated secondary antibody (Goat anti-rabbit IgG; 074-1506, KPL, Gaithersburg, Md., USA). β-actin was probed as a loading control. Blots were developed using a chemiluminescent substrate (Pierce) for 5 minutes.
# [7] = Phase 1 and Phase 2 human trials; cited from earlier work
# [8] = tested on: rat model of peripheral nerve injury; details: 100 IU/kg/day following nerve injury; cited from earlier work
compound,measurement,setting,value
"C=C1CC[C@H](O)C/C1=C/C=C1\CCC[C@]2(C)[C@@H]([C@H](C)CCCC(C)(C)O)CC[C@@H]12 [Compound 25OHD3, 25-hydroxyvitamin D3]",fraction of total in serum bound by DBP,[1],about 88%
"CC(=O)[C@H]1CCC2C3CCC4=C[C@@H](OC(=O)[C@@H](N)C(C)C)CC[C@]4(C)C3CC[C@@]21C (stereo partly drawn) [Compound 31, 3β-L-Valine-progesterone-HCl]",edema compared to subjects treated with vehicle,[2],decrease in edema
same,mean % difference edema,[2],2.2%
"CC(C)[C@H](N)C(=O)O[C@@H](C)[C@H]1CCC2C3CCC4=CC(=O)CC[C@]4(C)C3CC[C@@]21C (stereo partly drawn) [Compound 57, 20-S-L-Valine-progesterone HCl salt]",edema compared to subjects treated with vehicle,[2],decrease in edema
same,mean % difference edema,[2],3.3%
"CC(=O)[C@H]1CCC2C3CCC4=C/C(=N/OC(=O)[C@@H](N)Cc5c[nH]c6ccccc56)CC[C@]4(C)C3CC[C@@]21C (stereo partly drawn) [Compound 79, O-L-Tryptophan-C3-oxime-progesterone HCl salt]",edema compared to subjects treated with vehicle,[2],decrease in edema
same,mean % difference edema,[2],1.9%
"C=C1/C(=C\C=C2/CCC[C@]3(C)[C@@H]([C@H](C)CCCC(C)(C)O)CC[C@@H]23)C[C@@H](O)C[C@@H]1O [VDH, 1,25-dihydroxyvitamin D3]","spontaneous locomotor activity (total distance, resting, stereotypy, movement time)",[3],little or no benefit
same,best (most effective) concentration alone against glutamate-induced neuronal death,[4]; LDH and MTT assays,0.1 µM
same,shape of concentration response curve for neuroprotection against glutamate toxicity,"[4]; VDH alone, or PROG 20 μM with VDH 1-100 nM",U-shaped
same,neuroprotection against glutamate toxicity compared to vehicle-only group,[4]; VDH higher concentrations (1-10 μM),did not prevent neuronal loss
same,neuroprotection against glutamate toxicity compared to vehicle-only group,"[4]; VDH lower concentrations (0.001-0.5 μM), P<0.001",significantly protective
same,"morphology of neurons (neuronal processes, number of neurons) after glutamate",[5],rescued neurons
same,increase in p-ERK1/2 level compared to control group,[6],1.7 ×
"CC(=O)[C@H]1CC[C@H]2[C@@H]3CC[C@H]4C[C@](C)(O)CC[C@]4(C)[C@H]3CC[C@]12C [ganaxolone, 3a-hydroxy-3b-methyl-5a-pregnan-20-one]",tolerability,[7],well tolerated
"C=C1CC[C@H](O)C/C1=C/C=C1\CCC[C@]2(C)[C@@H]([C@H](C)/C=C/[C@H](C)C(C)C)CC[C@@H]12 [vitamin D2, ergocalciferol]",axogenesis and axon diameter,[8],significantly increased axogenesis and axon diameter
